Measured values as given in publication PMC6155662, “Trypanocidal Activity of Quinoxaline 1,4 Di-N-oxide Derivatives as Trypanothione Reductase Inhibitors” (Molecules : A Journal of Synthetic Chemistry and Natural …, 2017).
Read-outs that look alike come from different tables or passages of the source.

Assays:
recombinant T. cruzi TR = biological target: T1, recombinant T. cruzi TR (Trypanosoma cruzi, UniProt P28593); assay: TR enzyme inhibition (NADPH consumption at 340 nm); type: biochemical; conditions: for inhibition at 20 µM: inhibitor 20 µM; for inhibition at 40 µM: inhibitor 40 µM; for inhibition at 60 µM: inhibitor 60 µM; for inhibition at 80 µM: inhibitor 80 µM, T-085 precipitates in the assay at 80 µM; for inhibition at 100 µM: inhibitor 100 µM; for inhibitory activity on TR: even when tested at 100 μM, 100 μM or 40 μM TS2
T1 construct: made in house
Method: Trypanothione disulfide (TS2) and recombinant T. cruzi TR were prepared following published procedures. Recombinant human glutathione reductase (GR) was kindly provided by Dr. Heiner Schirmer, Heidelberg Germany. Stock solutions (5 mM) of the inhibitors were prepared in DMSO. The kinetic analyses were conducted using a Jasco V650 spectrophotometer. All enzymatic tests were performed in polystyrene optical cuvettes (10 × 4 × 45 mm). TR activity was measured at 25 °C in a total volume of 1 mL TR assay buffer (40 mM HEPES, 1 mM EDTA, pH 7.5 [47]) containing 100 μM NADPH and 5–10 mU enzyme in the absence and presence of the inhibitor. Each assay contained a total of 5% DMSO. The reaction was started by adding TS2 and NADPH consumption was followed at 340 nm.
Five compound concentrations were used ranging from 100–5 μM. All measurements were performed twice in three independent series. Enzyme activity was plotted versus increasing inhibitor concentrations. IC50 values were calculated using the four-parameter equation model 205 and the option “unlock” from the XLfit add-in (IDBS, Guildford, United Kingdom) for Excel (Microsoft Corporation, Redmond, WA, USA).
The type of inhibition and the inhibitor constants were derived from Lineweaver-Burk plot. The activity of TR was measured in the absence and presence of two to three constant concentrations of inhibitor varying the concentration of TS2 (20, 40, 60, 100 and 200 µM). The inhibitory constant Ki was calculated from the direct plot using nonlinear least-squares data fitting in Excel spreadsheet.

[1] = system: bloodstream trypomastigotes NINOA and INC-5 of T. cruzi; parameters: method as in PMID 24691716; conditions: 5 µg/mL (M2 = 14.73 µM, M8 = 17.98 µM, M6 = 14.91 µM); NINOA and INC-5 bloodstream trypomastigotes; cited from earlier work
[2] = system: T. cruzi INC-5 epimastigotes; assay: Viability (MTT) assay on T. cruzi epimastigotes; type: cell-based, Trypanosoma cruzi; conditions: Trypanosoma cruzi, 24 h, mean and SD of triplicate
Method: In this study, two strains of T. cruzi isolated in Mexico were used. […] Epimastigotes were cultured in vitro in liver infusion-tryptose (LIT) medium supplemented with 10% heat inactivated fetal bovine serum (FBS) (Gibco) and 100 U/mL penicillin-streptomycin (In vitro S.A.), and incubated at 27 °C. CD1 mice, aged 6–8 weeks, were infected with T. cruzi to obtain bloodstream trypomastigote samples.
Viability assays of T. cruzi epimastigotes using 3-(4,5-dimethylthiazol-2-yl)-2,5-diphenyltetrazolium bromide (MTT) were performed. Briefly, the parasites were harvested during the exponential growth phase for a period of five days. In a 96-well microplate 1x10^6 epimastigotes were deposited in brain-heart infusion (BHI) medium supplemented with 10% FBS and 100 U/mL antibiotic-antifungal mixture (Gibco). […] Each well reached a final volume of 100 µL. Each condition was assessed in triplicate. The microplate was incubated for 24 h at 27 °C in darkness. Afterwards, 10 μL of a 5 mg/mL MTT solution was added and the plate was incubated for 20 h at 27 °C. Then 200 μL of 10% dodecyl sulfate (SDS)/0.1% HCl solution was added to dissolve formazan salts; the plate was incubated an additional 4 h. Finally, the plate was read at 570 nm in a spectrophotometer (Multiskan EX Thermo Electron, Taipei, Taiwan). The amount of viable cells was proportional to the amount of formazan produced. […] Later the results were converted to micromolar units. […] As a […] control, parasites were incubated only in culture medium with a 1% DMSO concentration, corresponding to the highest sample dilution of DMSO [34, 35, 36].

[3] = Cytotoxicity assay (Alamar Blue) on macrophages; type: cell-based, murine; conditions: mouse, J774A.1 macrophages, mean and SD of triplicate
Method: The murine macrophage cell line J774.A1 was maintained in culture flasks with RPMI 1640 medium supplemented with 10% FBS, 1% MEM-NEAA medium (Gibco) and 100 U/mL antibiotic-antifungal mixture (Gibco). Cells were incubated at 37 °C with 5% CO2 and humidity. Trypsinized J774.A1 macrophages were washed and viability was assessed by the trypan blue dye (Sigma-Aldrich, Toluca, Edo de Mexico, Mexico) exclusion assay. In a 96-well microplate, 50,000 macrophages were seeded per well and a dose-response assay was performed. Compounds were evaluated using six-fold serial dilutions ranging from 100 µg/mL to 0.3 µg/mL of final concentration. Each compound was tested in triplicate. After 20 h incubation, Alamar Blue was added (10% v/v) and cells were incubated for an additional 4 h period. Results were obtained as previously described and CC50 was calculated. As a negative control of cytotoxicity, cells were incubated only in the presence of 0.1% DMSO [39, 40].

[4] = system: T. cruzi bloodstream trypomastigotes INC-5 strain; assay: microbe, parasite or virus in culture; type: cell-based; conditions: Trypanosoma cruzi; 50 μg/mL, 24 h at 4 °C, infected mouse blood; read-out: % Lysis at 50 μg/mL INC-5 Strain
Method: (§1) In this study, two strains of T. cruzi isolated in Mexico were used. T. cruzi NINOA strain (MHOM/MX/1994/NINOA) was obtained from a patient with acute Chagas disease and T. cruzi INC-5 (MHOM/MX/1994/INC5) was isolated from a patient in the chronic phase of the disease. Epimastigotes were cultured in vitro in liver infusion-tryptose (LIT) medium supplemented with 10% heat inactivated fetal bovine serum (FBS) (Gibco) and 100 U/mL penicillin-streptomycin (In vitro S.A.), and incubated at 27 °C. CD1 mice, aged 6–8 weeks, were infected with T. cruzi to obtain bloodstream trypomastigote samples. Animal experiments were performed according to Norma Oficial Mexicana (NOM-062-Z00-1999) published on 22 August, 2009.
(§2) CD1 female mice 6–8 weeks old were infected with T. cruzi bloodstream trypomastigotes of the INC-5 and NINOA strains. The course of infection continued for 4–6 weeks. At the peak of parasitemia blood was obtained by cardiac puncture using sodium heparin as an anticoagulant. The blood was adjusted to 1 × 10^6 bloodstream trypomastigotes/mL.
(§3) In each well of the 96-well plate, 195 μL of infected blood and 5 μL of quinoxaline 1,4-di-N-oxide derivatives or reference drug dilutions were seeded, with each well reaching a final volume of 200 µL. Each assay was performed in triplicate. Initially, all compounds were tested at 50 μg/mL. […] As a negative control of lysis, wells with untreated blood trypomastigotes were used, and as a positive control, wells with the reference drugs were used. The microplates were incubated at 4 °C for 24 h. Bloodstream trypomastigotes were quantified by the method of Brener-Pizzi, 5 μL of blood were placed on a slide and covered with a coverslip 13 × 13 mm. The mobile protozoa were counted in 15 fields at 40× magnification using an optical microscope. The percentage lysis was determined by comparing the remaining trypomastigotes against the negative control. LC50 was determined with the Probit statistical tool. The results were later converted to micromolar units.

[5] = system: T. cruzi bloodstream trypomastigotes NINOA strain; assay: microbe, parasite or virus in culture; type: cell-based; conditions: Trypanosoma cruzi; 50 μg/mL, 24 h at 4 °C, infected mouse blood; read-out: % Lysis at 50 μg/mL NINOA Strain
Method: as §1, §2, §3

TR = conditions: known TR inhibitor, quoted for comparison; no reference given; cited from earlier work
[6] = 40 µM TS2, read-out: % Inhibition of TR at 40 µM [TS2]
[7] = 100 µM TS2, read-out: % Inhibition of TR at 100 µM [TS2]

T1 sequence (P28593 whole entry): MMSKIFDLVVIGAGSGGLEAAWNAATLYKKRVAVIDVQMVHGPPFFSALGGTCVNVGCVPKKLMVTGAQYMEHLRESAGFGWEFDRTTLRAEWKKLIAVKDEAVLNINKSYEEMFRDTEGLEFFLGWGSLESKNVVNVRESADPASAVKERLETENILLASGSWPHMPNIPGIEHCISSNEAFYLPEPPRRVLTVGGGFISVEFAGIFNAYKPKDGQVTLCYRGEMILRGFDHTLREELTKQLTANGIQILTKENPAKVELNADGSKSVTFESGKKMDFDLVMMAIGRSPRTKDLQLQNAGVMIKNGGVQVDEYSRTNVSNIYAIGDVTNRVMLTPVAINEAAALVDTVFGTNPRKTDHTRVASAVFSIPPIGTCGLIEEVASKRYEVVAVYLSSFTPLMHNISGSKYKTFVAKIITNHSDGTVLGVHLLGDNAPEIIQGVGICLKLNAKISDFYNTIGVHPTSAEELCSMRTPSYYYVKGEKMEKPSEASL

Row | SMILES | inhibition at 40 µM (recombinant T. cruzi TR; [6]) [%] | inhibition at 40 µM (recombinant T. cruzi TR; [7]) [%] | inhibition at 100 µM (recombinant T. cruzi TR; [6]) [%] | inhibition at 100 µM (recombinant T. cruzi TR; [7]) [%] | % lysis at 5 µg/mL [1] | IC50 [2] [µM] | CC50 at 24 h [3] [µM] | killing at 50 µg/mL [4] [%] | killing at 50 µg/mL [5] [%] | other results
1 | COC(=O)c1ccc2c(c1)[n+]([O-])c(C(=O)c1ccccc1)c(C)[n+]2[O-] [Compound T-003] | 9 | 10 | 23.8 | 19.3 | about 50% | – | – | – | – | inhibition at 20 µM (recombinant T. cruzi TR; [6]): 6.6%; inhibition at 20 µM (recombinant T. cruzi TR; [7]): 6%; inhibition at 60 µM (recombinant T. cruzi TR; [6]): 14.8%; inhibition at 60 µM (recombinant T. cruzi TR; [7]): 12%; inhibition at 80 µM (recombinant T. cruzi TR; [6]): 20.5%; inhibition at 80 µM (recombinant T. cruzi TR; [7]): 18%
2 | COC(=O)c1ccc2c(c1)[n+]([O-])c(C(=O)OC(C)(C)C)c(C)[n+]2[O-] [Compound T-021] | 0 | 0 | 7.5 | 0 | about 50% | – | – | – | – | inhibitory activity on TR (recombinant T. cruzi TR): no or negligible inhibitory activity
3 | COC(=O)c1ccc2c(c1)[n+]([O-])c(C(N)=O)c(C)[n+]2[O-] [Compound T-044] | 0 | 0 | 0 | 0 | about 50% | – | – | – | – | inhibitory activity on TR (recombinant T. cruzi TR): no or negligible inhibitory activity
4 | CCCOC(=O)c1ccc2c(c1)[n+]([O-])c(C(=O)Nc1ccccc1)c(C)[n+]2[O-] [Compound T-125, n-Propyl 2-phenylamide-3-methylquinoxaline-7-carboxylate 1,4-di-N-oxide] | – | – | – | – | – | > 130 | > 261 | 0 | 35.6 ± 3.6 | –
5 | CCCOC(=O)c1ccc2c(c1)[n+]([O-])c(C(C)=O)c(C)[n+]2[O-] [Compound T-126, n-Propyl 2-acetyl-3-methylquinoxaline-7-carboxylate 1,4-di-N-oxide] | – | – | – | – | – | > 163 | > 327 | 0 | 17.7 ± 3.1 | –
6 | CCCOC(=O)c1ccc2c(c1)[n+]([O-])c(C(N)=O)c(C)[n+]2[O-] [Compound T-130, n-Propyl 2-amide-3-methylquinoxaline-7-carboxylate 1,4-di-N-oxide] | – | – | – | – | – | 238 ± 11.5 | > 326 | 0.69 ± 1.2 | 4.65 ± 3.4 | –
7 | CC1CS(=O)(=O)CCN1/N=C/c1ccc([N+](=O)[O-])o1 (stereo not shown) [Nfx, nifurtimox, reference compound] | – | – | – | – | – | 8.74 ± 3.8 | 201 ± 12.5 | 62.6 ± 3.9 | 67.3 ± 5.4 | –
8 | CCN(CC)CCCC(C)Nc1c2ccc(Cl)cc2nc2ccc(OC)cc12 (stereo not shown) [mepacrine] | – | – | – | – | – | – | – | – | – | Ki (TR): 19 µM
